In one assay the test system is SARS-CoV-2. In words: microbe, parasite or virus in culture. Format: cell-based. The following applies: Severe acute respiratory syndrome coronavirus 2, VeroE6/TMPRSS2, 72 h, 50% SARS-CoV-2 infected cell death inhibitory concentration, VeroE6/TMPRSS2 cells, 3 days culture.
In the next assay the target is SARS-CoV-2 3CL protease (Severe acute respiratory syndrome coronavirus 2, UniProt P0DTD1). In words: biochemical. The following applies: 50% SARS-CoV-2 3CL protease inhibitory concentration, read-out: IC50.

Like-named read-outs stand apart in the source and are kept apart here. Some results are limits rather than exact numbers.

By EC50 is commonly meant the concentration that produces a half-maximal response. The low end stands for a more potent agent, the high end for a less potent agent. Broadly, the IC50 is the concentration that inhibits the measured activity by half.

Molecule `Cc1cncc(-n2c(=O)nc(Nc3cc4cn(C)nc4cc3Cl)n(Cc3cc(C#N)ccc3Cc3cccc(F)c3)c2=O)c1` [II-0027] registered an EC50 with SARS-CoV-2 (class symbols) of less than 1000 nM. For the same molecule, the IC50 at SARS-CoV-2 3CL protease (given as class symbols) was less than 100 nM.

Take `Cc1cncc(-n2c(=O)nc(Nc3cc4cn(C)nc4cc3Cl)n(Cc3ccc(F)c(F)c3)c2=O)c1` [II-0028]: the EC50 with SARS-CoV-2 (class symbols) was less than 1000 nM. The 50% inhibitory concentration (IC50) at SARS-CoV-2 3CL protease (given as class symbols) was less than 100 nM.

In the assay on SARS-CoV-2 (class symbols), `N#Cc1cc(F)cc(Cn2c(Nc3cc4c(cc3Cl)OCC4)nc(=O)n(Cc3ccc[nH]c3=O)c2=O)c1` [II-0029] returned a half-maximal effective concentration (EC50) of 1000 to 10000 nM. Moreover, the IC50 on SARS-CoV-2 3CL protease (given as class symbols) is less than 100 nM.

As to `O=c1[nH]c2sccc2cc1Cn1c(=O)nc(Nc2cc3cn(CCO)nc3cc2Cl)n(Cc2cc(F)c(F)c(F)c2)c1=O` [II-0031], the EC50 with SARS-CoV-2 (class symbols) was in the range of 1000 to 10000 nM. Further, at SARS-CoV-2 3CL protease (given as class symbols), the half-inhibitory concentration (IC50) is less than 100 nM.

`O=c1nc(Nc2cc3cn(CCO)nc3cc2Cl)n(Cc2cc(F)c(F)cc2F)c(=O)n1-c1cncc2ccccc12` [II-0032] displayed an EC50 with SARS-CoV-2 (class symbols) of less than 1000 nM. For the same molecule, the IC50 on SARS-CoV-2 3CL protease (given as class symbols) was less than 100 nM.

`CCn1cc2cc(Nc3nc(=O)n(-c4cncc(Cl)c4)c(=O)n3Cc3cc(C#N)ccc3C)ccc2n1` [II-0034] gave an EC50 in the assay with SARS-CoV-2 (CellTiter-Glo 2.0) of 234 nM. On SARS-CoV-2 3CL protease (RapidFire MS), the IC50 was 7.3 nM.

For the molecule `Cc1cncc(-n2c(=O)nc(Nc3cc4sc(NC(C)C)nc4cc3Cl)n(Cc3ccc(F)c(C#N)c3)c2=O)c1` [II-0035], the half-maximal effective concentration (EC50) in the assay with SARS-CoV-2 (class symbols) was less than 1000 nM. Also, on SARS-CoV-2 3CL protease (given as class symbols), the IC50 was less than 100 nM.

In turn, `CCn1cc2cc(Nc3nc(=O)n(-c4cncc(Cl)c4)c(=O)n3Cc3cc(C#N)ccc3Cl)ccc2n1` [II-0036] yielded a concentration giving a half-maximal response (EC50) with SARS-CoV-2 (CellTiter-Glo 2.0) of 355 nM. In addition, the half-inhibitory concentration (IC50) on SARS-CoV-2 3CL protease (RapidFire MS) is 8.3 nM.

Turning to `CC(C)Nc1nc2cc(Cl)c(Nc3nc(=O)n(Cc4ncn(C)n4)c(=O)n3Cc3cc(F)c(F)cc3F)cc2s1` [II-0037], the EC50 with SARS-CoV-2 (class symbols) fell in the range of 1000 to 10000 nM. The half-maximal inhibitory concentration (IC50) at SARS-CoV-2 3CL protease (given as class symbols) is less than 100 nM.

In the assay with SARS-CoV-2 (class symbols), `Cc1cncc(-n2c(=O)nc(Nc3ccc4nn(C(C)C)cc4c3)n(Cc3ccc(F)c(C#N)c3)c2=O)c1` [II-0038] gave a half-maximal effective concentration (EC50) of 1000 to 10000 nM. Further, the half-inhibitory concentration (IC50) at SARS-CoV-2 3CL protease (given as class symbols) was less than 100 nM.

In the assay with SARS-CoV-2 (class symbols), `Cn1cnc(Cn2c(=O)nc(Nc3cc4cccnc4cc3Cl)n(Cc3cc(F)c(F)cc3F)c2=O)n1` [II-0039] registered a half-maximal effective concentration (EC50) of 1000 to 10000 nM. Also, the IC50 on SARS-CoV-2 3CL protease (given as class symbols) was less than 100 nM.

`CNc1nc2ccc(Nc3nc(=O)n(Cc4cc(Cl)c[nH]c4=O)c(=O)n3Cc3cc(F)c(F)c(F)c3)cc2s1` [II-0041]: the EC50 in the assay on SARS-CoV-2 (class symbols) lay within 1000 to 10000 nM. In addition, at SARS-CoV-2 3CL protease (given as class symbols), the half-maximal inhibitory concentration (IC50) was less than 100 nM.

Turning to `Cc1cncc(-n2c(=O)nc(Nc3cc4cn(C)nc4cc3Cl)n(Cc3cc(Cl)c(F)cc3C)c2=O)c1` [II-0043], in the assay with SARS-CoV-2 (CellTiter-Glo 2.0), the EC50 turned out to be 232 nM. The IC50 on SARS-CoV-2 3CL protease (RapidFire MS) was 5.8 nM.

`Cc1cc(F)c(Cl)cc1Cn1c(Nc2cc3cn(C)nc3cc2Cl)nc(=O)n(Cc2ncn(C)n2)c1=O` [II-0044]: in the assay with SARS-CoV-2 (class symbols), the concentration giving a half-maximal response (EC50) was less than 1000 nM. In addition, the half-maximal inhibitory concentration (IC50) on SARS-CoV-2 3CL protease (given as class symbols) is less than 100 nM.

On to `Cn1cnc(Cn2c(=O)nc(Nc3cc4cn(C)nc4cc3Cl)n(Cc3cc(F)c(F)c(Cl)c3)c2=O)n1` [II-0045], for which, in the assay with SARS-CoV-2 (CellTiter-Glo 2.0), the EC50 was determined as 218 nM. Also, at SARS-CoV-2 3CL protease (RapidFire MS), the half-maximal inhibitory concentration (IC50) turned out to be 4.7 nM.

Molecule `Cn1cnc(Cn2c(=O)nc(Nc3cc4c(cc3Cl)OCC4)n(Cc3cc(F)c(F)c(Cl)c3)c2=O)n1` [II-0046] had an EC50 with SARS-CoV-2 (class symbols) of less than 1000 nM. On SARS-CoV-2 3CL protease (given as class symbols), the IC50 was less than 100 nM.

`O=C1CN=CC=C1Cn1c(=O)nc(Nc2cc3c(cc2Cl)OCCC3)n(Cc2cc(F)c(F)cc2F)c1=O` [II-0047] registered a concentration giving a half-maximal response (EC50) in the assay on SARS-CoV-2 (class symbols) of less than 1000 nM. Also, the 50% inhibitory concentration (IC50) on SARS-CoV-2 3CL protease (given as class symbols) is less than 100 nM.

As to `CNc1nc2cc(Cl)c(Nc3nc(=O)n(Cc4ncn(C)n4)c(=O)n3Cc3cc(F)c(F)cc3F)cc2s1` [II-0048], the concentration giving a half-maximal response (EC50) in the assay with SARS-CoV-2 (class symbols) is less than 1000 nM. In addition, the 50% inhibitory concentration (IC50) at SARS-CoV-2 3CL protease (given as class symbols) was less than 100 nM.

`O=c1nc(Nc2cc3c(cc2Cl)OCC3)n(Cc2cc(F)c(F)c(F)c2)c(=O)n1-c1cncc2ccccc12` [II-0049] had an EC50 in the assay with SARS-CoV-2 (class symbols) of less than 1000 nM. Further, the half-maximal inhibitory concentration (IC50) on SARS-CoV-2 3CL protease (given as class symbols) is less than 100 nM.

In the case of `Cn1cnc(Cn2c(=O)nc(Nc3cc4cn(C)nc4cc3Cl)n(Cc3ccc(F)c(Cl)c3)c2=O)n1` [II-0050], the half-maximal effective concentration (EC50) in the assay on SARS-CoV-2 (class symbols) is less than 1000 nM. On SARS-CoV-2 3CL protease (given as class symbols), the half-inhibitory concentration (IC50) is less than 100 nM.

In the case of `Cn1cnc(Cn2c(=O)nc(Nc3cc4cn(C)nc4cc3Cl)n(Cc3cc(F)cc(Cl)c3)c2=O)n1` [II-0051], the EC50 with SARS-CoV-2 (class symbols) fell in the range of 1000 to 10000 nM. In addition, the IC50 on SARS-CoV-2 3CL protease (given as class symbols) was less than 100 nM.

Regarding `Cc1ccc(Cl)cc1Cn1c(Nc2cc3cn(C)nc3cc2Cl)nc(=O)n(Cc2ncn(C)n2)c1=O` [II-0052], in the assay with SARS-CoV-2 (class symbols), the EC50 fell in the range of 1000 to 10000 nM. The IC50 on SARS-CoV-2 3CL protease (given as class symbols) was less than 100 nM.

For the molecule `Cc1cncc(-n2c(=O)nc(Nc3cc4cn(C)nc4cc3F)n(Cc3cc(C#N)c(F)cc3Cl)c2=O)c1` [II-0053], the EC50 with SARS-CoV-2 (class symbols) is less than 1000 nM. In addition, the 50% inhibitory concentration (IC50) on SARS-CoV-2 3CL protease (given as class symbols) is less than 100 nM.

Turning to `Cc1cncc(-n2c(=O)nc(Nc3cc4cn(C)nc4cc3F)n(Cc3cc(F)c(F)c(C#N)c3)c2=O)c1` [II-0054], the concentration for a half-maximal effect (EC50) in the assay with SARS-CoV-2 (class symbols) was less than 1000 nM. The concentration for half-maximal inhibition (IC50) at SARS-CoV-2 3CL protease (given as class symbols) was less than 100 nM.

Molecule `Cc1cncc(-n2c(=O)nc(Nc3ccc4nn(CC(F)F)cc4c3)n(Cc3cc(F)c(F)c(C#N)c3)c2=O)c1` [II-0055] registered an EC50 in the assay on SARS-CoV-2 (CellTiter-Glo 2.0) of 180 nM. At SARS-CoV-2 3CL protease (RapidFire MS), the half-inhibitory concentration (IC50) was 4.5 nM.

The values are drawn from patent US12559474B2, “Triazine derivatives having virus replication inhibitory activity and pharmaceutical composition comprising the same” (priority 2021, dated 2026).
